Measured values taken from ChEMBL document CHEMBL4431301, “The Medicinal Chemistry of Dengue Virus” (J Med Chem, 2016).
pEC50, pIC50, pKi: −log10 of the molar value. Where a SMILES comes first, the peptide text is derived from it.

Tests used:
[1] = tested on: Junin virus; assay: Antiviral activity against Junin virus IV4454 infected in african green monkey Vero cells assessed as inhibition of viral yield after 48 hrs; assay type: functional, organism-based; settings: Mammarenavirus juninense
[2] = tested on: dengue virus type 3; assay: Antiviral activity against Dengue virus 3 H87 infected in african green monkey Vero cells assessed as inhibition of viral yield after 48 hrs; assay type: functional, organism-based
[3] = tested on: dengue virus type 1; assay: Antiviral activity against Dengue virus 1 Hawaii infected in african green monkey Vero cells assessed as inhibition of viral yield after 48 hrs; assay type: functional, organism-based
[4] = tested on: dengue virus type 2; assay: Antiviral activity against Dengue virus 2 NGC infected in african green monkey Vero cells assessed as inhibition of viral yield after 48 hrs; assay type: functional, organism-based
[5] = tested on: dengue virus type 2; assay: Antiviral activity against Dengue virus 2 NGC infected in BHK21 cells after 24 hrs by plaque reduction assay; assay type: functional; settings: BHK-21, 24 h
[6] = Cytotoxicity against BHK21 cells after 1 hr by alamar blue assay; assay type: cell-based, Mesocricetus auratus, BHK-21; settings: hamster
[7] = molecular target: Genome polyprotein (dengue virus type 2, UniProt P29990); assay: Inhibition of recombinant Dengue virus type 2 NS2B-NS3 protease expressed in Escherichia coli C41 cells using GRR-AMC as substrate after 15 mins by fluorescence assay
[8] = tested on: dengue virus type 1; assay: Antiviral activity against Dengue virus 1 TH-Sman VR-344 infected in african green monkey Vero cells assessed as reduction in viral titer after 48 hrs by plaque assay; assay type: functional, organism-based; settings: TH-Sman VR-344, Vero
[9] = tested on: dengue virus type 3; assay: Antiviral activity against Dengue virus 3 H87 VR-1256 infected in african green monkey Vero cells assessed as reduction in viral titer after 48 hrs by plaque assay; assay type: functional, organism-based; settings: H87 VR-1256, Vero
[10] = tested on: dengue virus type 2; assay: Antiviral activity against Dengue virus 2 NGC VR-1255 infected in african green monkey Vero cells assessed as reduction in viral titer after 48 hrs by plaque assay; assay type: functional, organism-based; settings: NGC VR-1255, Vero
[11] = tested on: dengue virus type 4; assay: Antiviral activity against Dengue virus 4 H241 VR-1257 infected in african green monkey Vero cells assessed as reduction in viral titer after 48 hrs by plaque assay; assay type: functional, organism-based; settings: H241 VR-1257, Vero
[12] = Oral bioavailability in AG129 mouse plasma at 50 mg/kg/day after 1 to 24 hrs by LC-MS/MS; assay type: ADME, organism-based
[13] = tested on: dengue virus type 2; assay: Antiviral activity against Dengue virus 2 NGC infected through intraperitoneal route in AG129 mouse assessed as reduction of viral load in spleen at 50 mg/kg, ip bid measured on day 3 by plaque assay relative to vehicle-treated control; assay type: functional
[14] = tested on: dengue virus type 2; assay: Antiviral activity against Dengue virus 2 NGC infected in african green monkey Vero cells assessed as reduction in viral titer after 48 hrs by plaque assay; assay type: functional, organism-based
[15] = tested on: dengue virus type 2; assay: Antiviral activity against Dengue virus 2 NGC infected through intraperitoneal route in AG129 mouse assessed as reduction of viral load in liver at 50 mg/kg, ip bid measured on day 3 by plaque assay relative to vehicle-treated control; assay type: functional
[16] = tested on: dengue virus type 2; assay: Antiviral activity against Dengue virus 2 NGC infected through intraperitoneal route in AG129 mouse assessed as reduction in peak plasma viremia at 50 mg/kg, ip bid measured on day 3 by plaque assay relative to vehicle-treated control; assay type: functional
[17] = tested on: dengue virus type 2; assay: Antiviral activity against Dengue virus 2 infected in BHK21 cells assessed after 3 to 5 days by crystal violet staining based plaque assay; assay type: functional, organism-based; settings: BHK-21
[18] = Inhibition of Dengue virus guanine N-7 methyltransferase using RNA substrate after 20 mins in presence of [methyl-3H]-AdoMet by microbeta counting analysis
[19] = molecular target: Nonstructural protein 5 (Dengue virus, UniProt V5TFZ2); assay: Inhibition of Dengue virus ribose 2'-O methyltransferase using RNA substrate after 20 mins in presence of [methyl-3H]-AdoMet by microbeta counting analysis
[20] = tested on: dengue virus type 2; assay: Antiviral activity against Dengue virus 2 NGC infected in human HuH7 cells assessed as reduction in viral titer after 24 hrs; assay type: functional; settings: Huh-7, 24 h
[21] = tested on: dengue virus type 2; assay: Antiviral activity against Dengue virus 2 NGC infected in human A549 cells assessed as reduction in virus replication after 48 hrs by renilla luciferase reporter gene assay; assay type: functional, organism-based; settings: A549, 48 h
[22] = tested on: dengue virus type 2; assay: Antiviral activity against Dengue virus 2 NGC infected in BHK21 cells after 48 hrs by plaque reduction assay; assay type: functional, organism-based; settings: BHK-21, 48 h
[23] = tested on: dengue virus type 2; assay: Antiviral activity against Dengue virus 2 NGC infected in human K562 cells assessed as inhibition in live viral replication after 48 hrs by plaque assay; assay type: functional, organism-based; settings: K562, 48 h
[24] = tested on: dengue virus type 2; assay: Antiviral activity against Dengue virus 2 assessed as inhibition of viral replication; assay type: functional, organism-based
[25] = Selectivity index, ratio of CC50 for BHK21 cells to EC50 for Dengue virus 2 infected in BHK21 cells; assay type: toxicity, cell-based; settings: hamster, read-out: Ratio CC50/EC50
[26] = tested on: dengue virus type 2; assay: Antiviral activity against Dengue virus 2 infected in BHK21 cells assessed as reduction in virus replication after 72 hrs by renilla luciferase reporter gene assay; assay type: functional, organism-based; settings: BHK-21, 72 h

Genome polyprotein, sequence (P29990 1346-1475 limits assumed): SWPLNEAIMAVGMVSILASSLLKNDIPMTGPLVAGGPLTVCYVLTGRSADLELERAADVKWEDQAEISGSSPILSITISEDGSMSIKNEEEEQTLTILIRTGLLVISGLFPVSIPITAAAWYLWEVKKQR
Genome polyprotein, sequence (P29990 1476-2093 limits assumed): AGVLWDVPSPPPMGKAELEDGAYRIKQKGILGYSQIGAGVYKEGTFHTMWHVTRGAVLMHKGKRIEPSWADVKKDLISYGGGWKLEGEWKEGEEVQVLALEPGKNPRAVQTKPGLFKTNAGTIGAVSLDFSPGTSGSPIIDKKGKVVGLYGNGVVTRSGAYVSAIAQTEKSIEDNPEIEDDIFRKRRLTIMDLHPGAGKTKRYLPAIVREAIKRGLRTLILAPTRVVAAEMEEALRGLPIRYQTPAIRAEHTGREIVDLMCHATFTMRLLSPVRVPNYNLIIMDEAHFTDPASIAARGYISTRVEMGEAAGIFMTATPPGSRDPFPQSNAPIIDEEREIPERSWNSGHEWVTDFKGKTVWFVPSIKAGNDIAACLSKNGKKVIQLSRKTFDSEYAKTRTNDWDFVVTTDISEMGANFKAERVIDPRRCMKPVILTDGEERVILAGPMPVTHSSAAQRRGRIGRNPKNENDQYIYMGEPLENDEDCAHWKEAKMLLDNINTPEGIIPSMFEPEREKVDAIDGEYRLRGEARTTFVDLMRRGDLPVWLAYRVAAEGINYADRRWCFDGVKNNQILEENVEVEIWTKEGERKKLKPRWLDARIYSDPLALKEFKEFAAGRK
Nonstructural protein 5, sequence (V5TFZ2 whole entry): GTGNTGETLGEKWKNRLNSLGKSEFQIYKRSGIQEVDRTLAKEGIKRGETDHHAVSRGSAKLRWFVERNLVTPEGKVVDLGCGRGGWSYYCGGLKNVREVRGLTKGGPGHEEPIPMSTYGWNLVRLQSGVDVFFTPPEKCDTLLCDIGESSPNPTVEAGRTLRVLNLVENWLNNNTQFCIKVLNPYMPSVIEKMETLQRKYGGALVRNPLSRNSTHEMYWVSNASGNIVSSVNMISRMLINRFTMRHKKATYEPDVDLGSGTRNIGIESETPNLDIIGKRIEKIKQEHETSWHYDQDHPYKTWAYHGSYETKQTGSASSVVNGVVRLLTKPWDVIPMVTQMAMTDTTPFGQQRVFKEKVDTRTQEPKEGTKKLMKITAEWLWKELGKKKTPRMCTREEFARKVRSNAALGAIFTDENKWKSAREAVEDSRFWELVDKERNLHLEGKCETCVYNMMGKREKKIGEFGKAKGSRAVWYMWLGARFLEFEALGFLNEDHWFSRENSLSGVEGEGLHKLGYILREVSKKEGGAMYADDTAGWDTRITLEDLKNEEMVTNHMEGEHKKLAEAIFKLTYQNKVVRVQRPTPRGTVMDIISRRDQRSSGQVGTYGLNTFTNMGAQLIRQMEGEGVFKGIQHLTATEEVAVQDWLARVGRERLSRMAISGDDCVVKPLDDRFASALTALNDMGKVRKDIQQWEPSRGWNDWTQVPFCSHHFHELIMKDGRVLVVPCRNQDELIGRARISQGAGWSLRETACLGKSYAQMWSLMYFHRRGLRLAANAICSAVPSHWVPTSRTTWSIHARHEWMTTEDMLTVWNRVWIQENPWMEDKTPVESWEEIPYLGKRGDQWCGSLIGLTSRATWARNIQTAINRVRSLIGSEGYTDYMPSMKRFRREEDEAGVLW

In the case of `C=CCn1c2ccccc2c(=O)c2ccc(Cl)cc21`, the pEC50 [1] was 5.26 to 5.60, the pEC50 [2] was 4.80 to 5.08 and the pEC50 [3] was 4.80 to 5.08. It also gave a pEC50 [4] of 5.26 to 5.60.
In the case of `N#C/C(=N\Nc1cccc(Cl)c1)C(=O)c1ccco1`, the IC90 [5] was 16.9 µM and the CC50 at 1 h [6] was > 100 µM.
Work on `CC(=O)N[C@@H](CCCNC(=N)N)C(=O)N[C@H](C(=O)N[C@@H](CO)C(=O)N[C@@H](CCCCN)C(=O)N[C@@H](CCCCN)C(=O)N[C@@H](CCCNC(=N)N)C(N)=O)[C@@H](C)O` (Ac-RTSKKR-NH2) yielded a pKi [7] of 4.92.
Compound `CO[C@@H]1[C@H]2OC(C)(C)O[C@H]2O[C@@H]1C(=O)c1cnc2sc(C(=O)c3ccc(Br)cc3)cn12` has a pEC50 [1] of 4.92 and a pEC50 [4] of 4.52.
`NC(=O)C1(N2CCCCC2)CCN(C(=O)CSc2nc3ccccc3o2)CC1` showed a pEC50 [8] of 6.57 to 6.69, a pEC50 [9] of 6.57 to 6.69 and a pEC50 [10] of 6.57 to 6.69. The pEC50 [11] was 6.57 to 6.69.
In the case of `Nc1c(C(=O)Nc2nnc(-c3ccccc3)s2)sc2nc3c(cc12)CCCCC3`, the bioavailability [12] was 9.1%, the “fold change (FC)” value [13] was 3 and the pEC50 [14] was 7.80. For the same compound, the EC90 [14] was 0.125 µM, the “fold change (FC)” value [15] was 20 and the “fold change (FC)” value [16] was 52.
In the case of `CCN(CC)CCCC(C)Nc1ccnc2cc(Cl)ccc12` (stereo not drawn) [CHLOROQUINE], the EC90 [17] was 5.04 µM.
With `Nc1ncnc2c1ncn2[C@@H]1O[C@H](CSCC[C@H](N)C(=O)O)[C@@H](O)[C@H]1O` [S-ADENOSYLHOMOCYSTEINE] the pIC50 [18] was 5.75 and the pIC50 [19] was 6.31.
With `Cc1nc(Nc2ncc(C(=O)Nc3c(C)cccc3Cl)s2)cc(N2CCN(CCO)CC2)n1` [DASATINIB] the EC90 [20] was 4.7 µM.
For `CC[C@H](C)C(=O)O[C@H]1C[C@@H](C)C=C2C=C[C@H](C)[C@H](CC[C@@H]3C[C@@H](O)CC(=O)O3)[C@H]21` [LOVASTATIN], the pEC50 [21] was 5.06 to 5.74.
With `OC[C@@H]1[C@@H](O)[C@H](O)[C@@H](O)CN1CCCCC1CCCCC1` the pEC50 [22] was 5.82.
`CC(=C\C(=O)O)/C=C(\C)C[C@H](C)CCCC[C@H]1OC(=O)[C@@H]1CO` [ANTIBIOTIC 1233A] gave a pEC50 [23] of 5.35.
With `C=C(CC[C@]12O[C@H](C(=O)O)[C@@](O)(C(=O)O)[C@](C(=O)O)(O1)[C@H](OC(=O)/C=C/[C@@H](C)C[C@@H](C)CC)[C@H]2O)[C@@H](OC(C)=O)[C@H](C)Cc1ccccc1` [ZARAGOZIC ACIDS A] the pEC50 [23] was 5.08.
For `CC(C)(C)OC(=O)NC1C(=O)NC2Cc3ccc(c(Cl)c3)Oc3cc4cc(c3O)Oc3ccc(cc3Cl)C(O)C3NC(=O)C(NC(=O)C4NC(=O)C(NC2=O)c2cc(O)cc(c2)Oc2cc1ccc2O)c1ccc(O)c(c1)-c1c(O)cc(O)cc1C(C(=O)NC12CC4CC(CC(C4)C1)C2)NC3=O` (stereo not drawn), the pEC50 [24] was 5.16.
With `Cc1cc(N2C(=O)C(O)=C(C(=O)c3ccc(C)o3)C2c2cc(Cl)cc(Cl)c2)no1` (stereo not drawn) the selectivity ratio [25] was 4.5 and the pEC50 [26] was 4.44.
Compound `N#C/C(=N\Nc1ccc(C(F)(F)F)cc1)C(=O)c1ccco1` has an IC90 [5] of 1.5 µM and a CC50 at 1 h [6] of 84.5 µM.
In the case of `OC[C@@H]1[C@@H](O)[C@H](O)[C@@H](O)CN1CCCCCC1(O)CCCCC1`, the pEC50 [22] was 5.70.
